Data: the CheMixHub ionic liquid set
± gives the uncertainty stated by the source.

Assay: xn = mol fraction of the nth substance listed
Conditions: 373 K, 100 kPa

viscosity (x2 = 0, x1 = 0.359): 3 ± 1 mPa·s | viscosity (x2 = 0.002991, x1 = 0.3578): 3 ± 1 mPa·s | viscosity (x2 = 0.01533, x1 = 0.3535): 4 mPa·s | viscosity (x2 = 0.0316, x1 = 0.3476): 5 ± 2 mPa·s | viscosity (x2 = 0.04909, x1 = 0.3413): 6 ± 2 mPa·s
SMILES: CC[n+]1ccn(C)c1.[Cl-] + O=C[C@H](O)[C@@H](O)[C@H](O)[C@H](O)CO + CC#N
